Assay results: patent US20240027453A1, “METHOD FOR DETECTION AND QUANTITATIVE MONITORING OF INFECTIONS WITH HERPESVIRUSES” (The Trustees of Princeton University, priority 2020, published 2024)
Read-outs that look alike come from different tables or passages of the source.

Test system: HCMV
Type: cell-based
Settings: DE
Experimental: In example herpesvirus PRM assay methods shown herein, cell pellets were lysed in 2% SDS, 100 mM NaCl, 0.5 mM EDTA, 50 mM Tris, pH 8.2, and 50 μg of protein was reduced and alkylated with 25 mM TCEP and 50 mM CAM respectively for 20 min at 70° C. Proteins were then precipitated via methanol chloroform precipitation (Wessel & Flugg, Anal Biochem. 138(1):141-143, 1984), resuspended in 50 mM HEPES, pH 8.2 and digested overnight with trypsin (50:1 protein:enzyme w/w ratio). Digested peptides were desalted by SDB-RPS StageTip as previously described (Lum et al., Cell Syst., 7(6):[…], 2018; Greco et al., Methods Mol Biol 1410:39-63, 2016; Federspiel & Cristea, Methods Mol Biol., 1977:115-143, 2019).
Peptides (1.0 μg on column) were analyzed by LC-MS/MS using a Dionex Ultimate 3000 UHPLC coupled online to an EASYSpray ion source and a Q Exactive HF. Peptides were separated on an EASYSpray C18 column (75 μm×25 cm) heated to 50° C. using a linear gradient of 5% B to 32% B over 60 min at a flow rate of 250 nL/min and were ionized at 1.7 kv. Mobile phase A consisted of 0.1% FA in H2O and mobile phase B consisted of 0.1% FA, 2.9% H2O in ACN.
The PRM method was controlled by a peptide inclusion list with retention time windows of 6 min for selected precursor ions.
The PRM assay was developed and analyzed using the open-source software Skyline (Maclean et al., Bioinformatics 26(7):966-968, 2010). Summed area under the curve of 3-4 transitions per peptide was used for quantitation. Targeted peptides were normalized to host protein loading control peptides. Peptide values for each sample were scaled to the average of each peptide across all runs. The average of multiple peptides was used as the inferred value for the protein measurement when more than one peptide was quantified (Federspiel et al., PLoS Biol. 17(9):e3000437. Doi: 10.1371/journal.pbio.3000437). PRM quantitation data were graphed using the Python Seaborn and Matplotlib libraries.
MRC5 primary human fibroblasts (HFs) (ATCC CCL-171) were used as the model system for HSV-1 and HCMV infections and were cultured in complete growth medium (DMEM supplemented with 10% fetal bovine serum and 1% penicillin-streptomycin antibiotics) at 37° C. and 5% CO2. iSLK.219 cells harboring latent KSHV (a gift from Dr. Britt Glaunsinger, University of California, Berkeley) were grown in complete growth medium supplemented with 500 μg/ml hygromycin (ThermoFisher Scientific, 10687010) at 37° C. and 5% CO2. All cells were used for experiments within a maximum of 10 passages.
Wild type HSV-1 strain 17+ (a gift from Beate Sodeik, Hannover Medical School, Hannover, Germany) was propagated as previously described (Diner et al., 2015). Briefly, PO stocks were generated by electroporating pBAC-HSV-1 into U-2 OS cells. […] In a similar manner, wild type HCMV strain AD169 was produced from BAC electroporation into HFs and working stocks were propagated by infecting HFs at a low level. In both cases, cell-associated virus was released by sonication, combined with supernatant virus, then concentrated by ultracentrifugation (20,000 rpm, 2 hours, 4° C. with SW28 swinging bucket rotor [Beckman Coulter]) over a 10% ficoll (HSV-1) or 20% sorbitol (HCMV) cushion. Virus stock titers were determined by plaque assay for HSV-1 or tissue culture infectious dose (TCID50) for HCMV and infections were performed at a multiplicity of infection (MOI) of 3.
12 hours prior to virus infection or reactivation, cells were treated with either the small molecule drug or DMSO/PBS control at an equivalent volume. […] For infection cycles lasting longer than 24 hours, small molecule drugs were re-added to the cell culture medium every 24 hours. Upon collection, cells were rinsed with PBS, scraped into a microcentrifuge tube, pelleted by centrifugation, and rinsed again with PBS.

## Nc1ccn(C[C@@H](CO)OCP(=O)(O)O)c(=O)n1 [CDV, cidofovir]
Timepoint 48
  UL71 (P16823) protein, numerical value of heatmap FIG. 6C: 0.3899
  UL78 (P16751) protein, numerical value of heatmap FIG. 6C: 0.6533
  UL84 (P16727) protein, numerical value of heatmap FIG. 6C: 0.1297
  UL95 (P16801) protein, numerical value of heatmap FIG. 6C: 0.1215
  UL96 (P16787) protein, numerical value of heatmap FIG. 6C: 0.3595
  UL97 (P16788) protein, numerical value of heatmap FIG. 6C: 0.2502
  UL98 (P16789) protein, numerical value of heatmap FIG. 6C: 0.3561
  UL102 (P16827) protein, numerical value of heatmap FIG. 6C: 0.7853
  UL104 (P16735) protein, numerical value of heatmap FIG. 6C: 0.06237
  UL112/UL113 (P17151) protein, numerical value of heatmap FIG. 6C: 0.5163
  UL114 (P16769) protein, numerical value of heatmap FIG. 6C: 0.6429
  UL119/UL118 (P16739) protein, numerical value of heatmap FIG. 6C: 0.3879
  UL128 (P16837) protein, numerical value of heatmap FIG. 6C: 0.163
  US8 (P09730) protein, numerical value of heatmap FIG. 6C: 0.9091
  US9 (P09729) protein, numerical value of heatmap FIG. 6C: 0.6112
  US12 (P09721) protein, numerical value of heatmap FIG. 6C: 0.7192
  US13 (P09720) protein, numerical value of heatmap FIG. 6C: 0.7254
  US14 (P09719) protein, numerical value of heatmap FIG. 6C: 0.2849
  US18 (P69334) protein, numerical value of heatmap FIG. 6C: 0.7625
  US22 (P09722) protein, numerical value of heatmap FIG. 6C: 0.4007
  US23 (P09701) protein, numerical value of heatmap FIG. 6C: 0.4974
  US24 (P09700) protein, numerical value of heatmap FIG. 6C: 0.4753
  gB (P06473) protein, numerical value of heatmap FIG. 6C: 0.1893
  sp|P09710|IR01_HCMVA (P09710) protein, numerical value of heatmap FIG. 6C: 0.2164
Timepoint 72
  CVC2 (P16726) protein, numerical value of heatmap FIG. 6C: 0.2298
  DBP (P17147) protein, numerical value of heatmap FIG. 6C: 0.7802
  HELI (P16736) protein, numerical value of heatmap FIG. 6C: 0.7131
  NEC1 (P16794) protein, numerical value of heatmap FIG. 6C: 0.2456
  NEC2 (P16791) protein, numerical value of heatmap FIG. 6C: 0.6919
  RIR1 (P16782) protein, numerical value of heatmap FIG. 6C: 0.443
  TRM1 (P16724) protein, numerical value of heatmap FIG. 6C: 0.5444
  UL4 (P17146) protein, numerical value of heatmap FIG. 6C: 0.08145
  UL26 (P16762) protein, numerical value of heatmap FIG. 6C: 0.4973
  UL32 (P08318) protein, numerical value of heatmap FIG. 6C: 0.2303
  UL34 (P16812) protein, numerical value of heatmap FIG. 6C: 0.5754
  UL35 (P16766) protein, numerical value of heatmap FIG. 6C: 0.3346
  UL38 (P16779) protein, numerical value of heatmap FIG. 6C: 0.9343
  UL44 (P16790) protein, numerical value of heatmap FIG. 6C: 0.5197
  UL48 (P16785) protein, numerical value of heatmap FIG. 6C: 0.4665
  UL54 (P08546) protein, numerical value of heatmap FIG. 6C: 1.149
  UL71 (P16823) protein, numerical value of heatmap FIG. 6C: 0.768
  UL78 (P16751) protein, numerical value of heatmap FIG. 6C: 1.048
  UL84 (P16727) protein, numerical value of heatmap FIG. 6C: 0.3948
  UL95 (P16801) protein, numerical value of heatmap FIG. 6C: 0.3335
  UL96 (P16787) protein, numerical value of heatmap FIG. 6C: 0.5111
  UL97 (P16788) protein, numerical value of heatmap FIG. 6C: 0.5258
  UL98 (P16789) protein, numerical value of heatmap FIG. 6C: 0.6741
  UL102 (P16827) protein, numerical value of heatmap FIG. 6C: 1.111
  UL104 (P16735) protein, numerical value of heatmap FIG. 6C: 0.4852
  UL112/UL113 (P17151) protein, numerical value of heatmap FIG. 6C: 0.7131
  UL114 (P16769) protein, numerical value of heatmap FIG. 6C: 1.008
